Measured values as given in patent US20170107207A1, “AMINOPYRAZOLONE DERIVATIVE” (DAIICHI SANKYO COMPANY, LIMITED, priority 2014, published 2017).
pIC50: −log10 of the molar value.

Legend:
TIP48/TIP49 complex = molecular target: T1, TIP48/TIP49 complex (Homo sapiens, UniProt Q9Y230+Q9Y265); experiment: ATPase assay of TIP48/TIP49 complex (ADP-Glo); type: biochemical; conditions: concentration at which the ATPase activity was inhibited by 50%
T1 construct: made in house; host or cells: E. coli
Method in brief: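 Compound was tested over 10 four-fold concentrations, 200 μM down to 0.0007 μM at 2% DMSO, against E. coli-derived human rTIP48/rTIP49 for 1.5 h at room temperature, pH 7.5 with ATP. ATP hydrolysis was read as ADP-Glo luminescence, normalised to complex-only and no-complex wells, then fitted to dose-response curves.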

[1] = test system: human lymphoma cell line RAMOS cells; experiment: Cell growth inhibition test using RAMOS cell, MTT assay; type: cell-based; conditions: 50% growth inhibition concentration
Method in brief: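 Cells in RPMI1640 with 10% FBS were exposed to compound (DMSO ≤1%) for 3 days at 37° C, 5% CO2. Viability was read by MTT (4 h, formazan in DMSO, OD 540/660 nm) against a day-0 plate; GI50 was interpolated from T/C % growth rates.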

T1 sequence (Q9Y230 whole entry): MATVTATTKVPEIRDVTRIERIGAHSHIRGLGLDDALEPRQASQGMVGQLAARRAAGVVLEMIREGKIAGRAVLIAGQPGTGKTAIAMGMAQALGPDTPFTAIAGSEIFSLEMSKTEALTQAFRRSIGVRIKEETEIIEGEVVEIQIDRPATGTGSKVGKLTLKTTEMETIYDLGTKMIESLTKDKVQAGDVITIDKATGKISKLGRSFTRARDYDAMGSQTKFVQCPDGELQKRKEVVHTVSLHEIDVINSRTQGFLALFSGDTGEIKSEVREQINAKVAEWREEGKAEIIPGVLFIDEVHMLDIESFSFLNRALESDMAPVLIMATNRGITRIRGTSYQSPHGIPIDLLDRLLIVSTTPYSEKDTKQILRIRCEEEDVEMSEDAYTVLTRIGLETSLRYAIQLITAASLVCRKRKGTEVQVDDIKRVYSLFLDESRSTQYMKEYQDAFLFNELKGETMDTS
T1 sequence (Q9Y265 whole entry): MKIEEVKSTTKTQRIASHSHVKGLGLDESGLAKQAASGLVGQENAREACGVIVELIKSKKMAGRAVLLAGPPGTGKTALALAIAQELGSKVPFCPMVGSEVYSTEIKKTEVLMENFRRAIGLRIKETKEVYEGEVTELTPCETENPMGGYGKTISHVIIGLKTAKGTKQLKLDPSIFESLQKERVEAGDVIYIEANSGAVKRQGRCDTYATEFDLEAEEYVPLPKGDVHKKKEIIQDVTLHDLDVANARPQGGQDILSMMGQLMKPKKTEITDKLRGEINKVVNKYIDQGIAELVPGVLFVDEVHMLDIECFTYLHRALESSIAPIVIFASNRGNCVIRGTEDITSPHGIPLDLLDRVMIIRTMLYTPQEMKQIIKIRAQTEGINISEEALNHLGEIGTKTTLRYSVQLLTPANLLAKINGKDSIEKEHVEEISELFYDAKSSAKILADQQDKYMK

Row | SMILES | pIC50 (TIP48/TIP49 complex) | GI50 [1]
1 | CCOc1cc(F)c(Cl)cc1NC(=O)CC(C)(C)CC(=O)Nc1c(COC)n(C)n(-c2ccccc2)c1=O [Example 119, N-(5-Chloro-2-ethoxy-4-fluorophenyl)-N′-[5-(methoxymethyl)-1-methyl-3-oxo-2-phenyl-2,3-dihydro-1H-pyrazol-4-yl]-3,3-dimethylpentanediamide] | 7.02 | 270 nM
2 | COCc1c(NC(=O)CC(C)(C)CNC(=O)c2cc(Cl)cc3cc(C)oc23)c(=O)n(-c2ccccc2)n1C [Example 120, 5-Chloro-N-(4-{[5-(methoxymethyl)-1-methyl-3-oxo-2-phenyl-2,3-dihydro-1H-pyrazol-4-yl]amino}-2,2-dimethyl-4-oxobutyl)-2-methylbenzofuran-7-carboxamide] | 7.62 | 51 nM
3 | COCc1c(NC(=O)CC(C)(C)CNC(=O)c2cc(Cl)cc3c2OC(C)(C)C3)c(=O)n(-c2ccccc2)n1C [Example 121, 5-Chloro-N-(4-{[5-(methoxymethyl)-1-methyl-3-oxo-2-phenyl-2,3-dihydro-1H-pyrazol-4-yl]amino}-2,2-dimethyl-4-oxobutyl)-2,2-dimethyl-3H-benzofuran-7-carboxamide] | 7.21 | 140 nM
4 | COc1ccc(Cl)cc1C(=O)NCC(C)(C)CC(=O)Nc1c(COC2CN(C)C2)n(C)n(-c2ccccc2)c1=O [Example 134] | 6.66 | 800 nM
5 | CCOc1ccc(Cl)cc1C(=O)NCC(C)(C)CC(=O)Nc1c(COc2cccnc2)n(C)n(-c2ccccc2)c1=O [Example 135, 5-Chloro-N-(2,2-dimethyl-4-{[1-methyl-3-oxo-2-phenyl-5-(3-pyridyloxymethyl)pyrazol-4-yl]amino}-4-oxobutyl)-2-ethoxybenzamide] | 7.00 | 120 nM
6 | CCOc1ccc(Cl)cc1C(=O)NCC(C)(C)CC(=O)Nc1c(C)n(CC)n(-c2ccccc2)c1=O [Example 137, 5-Chloro-2-ethoxy-N-{4-[(1-ethyl-5-methyl-3-oxo-2-phenyl-2,3-dihydro-1H-pyrazol-4-yl)amino]-2,2-dimethyl-4-oxobutyl}benzamide] | 7.42 | 48 nM
7 | Cc1c(NC(=O)CC(C)(C)CNC(=O)c2cc(Cl)cc3c2OC(C)(C)C3)c(=O)n(-c2ccccc2)n1CCO [Example 139, 5-Chloro-N-(4-{[1-(2-hydroxyethyl)-5-methyl-3-oxo-2-phenyl-2,3-dihydro-1H-pyrazol-4-yl]amino}-2,2-dimethyl-4-oxobutyl)-2,2-dimethyl-3H-benzofuran-7-carboxamide] | 7.60 | 65 nM
8 | CCOc1ncc(Cl)cc1C(=O)NCC(C)(C)CC(=O)Nc1c(C)n(CCN2CCC2)n(-c2ccccc2)c1=O [Example 140, N-[4-({1-[2-(Azetidin-1-yl)ethyl]-5-methyl-3-oxo-2-phenyl-2,3-dihydro-1H-pyrazol-4-yl}amino)-2,2-dimethyl-4-oxobutyl]-5-chloro-2-ethoxypyridine-3-carboxamide] | 6.60 | 240 nM
9 | CCOc1ncc(Cl)cc1C(=O)NCC(C)(C)CC(=O)Nc1c(C)n(CCN(C)C)n(-c2ccccc2)c1=O [Example 141, 5-Chloro-N-[4-({1-[2-(dimethylamino)ethyl]-5-methyl-3-oxo-2-phenyl-2,3-dihydro-1H-pyrazol-4-yl}amino)-2,2-dimethyl-4-oxobutyl]-2-ethoxypyridine-3-carboxamide] | 6.80 | 230 nM
10 | CCOc1ncc(Cl)cc1C(=O)NCC(C)(C)CC(=O)Nc1c(C)n(CCN2CCOCC2)n(-c2ccccc2)c1=O [Example 142, 5-Chloro-N-(2,2-dimethyl-4-{[5-methyl-1-(2-morpholinoethyl)-3-oxo-2-phenyl-2,3-dihydro-1H-pyrazol-4-yl]amino}-4-oxobutyl)-2-ethoxypyridine-3-carboxamide] | 7.21 | 180 nM
11 | C=Cn1c(C)c(NC(=O)CC(C)(C)CC(=O)Nc2cc(Cl)c(F)cc2OC)c(=O)n1-c1ccccc1 [Example 143, N-(5-Chloro-4-fluoro-2-methoxyphenyl)-3,3-dimethyl-N′-(3-methyl-5-oxo-1-phenyl-2-vinylpyrazol-4-yl)pentanediamide] | 6.59 | 1200 nM
12 | COc1cc(F)c(Cl)cc1NC(=O)CC(C)(C)CC(=O)Nc1c(C)[nH]n(-c2ccccc2)c1=O [Example 144, N-(5-Chloro-4-fluoro-2-methoxyphenyl)-3,3-dimethyl-N′-(5-methyl-3-oxo-2-phenyl-1H-pyrazol-4-yl)pentanediamide] | 5.82 | 11000 nM
13 | CCOc1ncc(Cl)cc1C(=O)NCC(C)(C)CC(=O)Nc1c(C)n(C)n(-c2ccccn2)c1=O [Example 150, 5-Chloro-N-(4-{[1,5-dimethyl-3-oxo-2-(2-pyridyl)-2,3-dihydro-1H-pyrazol-4-yl]amino}-2,2-dimethyl-4-oxobutyl)-2-ethoxypyridine-3-carboxamide] | 6.96 | 350 nM
14 | Cc1cc2cc(Cl)cc(C(=O)NCC(C)(C)CC(=O)Nc3c(C)n(C)n(-c4ccccn4)c3=O)c2o1 [Example 151, 5-Chloro-N-(4-{[1,5-dimethyl-3-oxo-2-(2-pyridyl)-2,3-dihydro-1H-pyrazol-4-yl]amino}-2,2-dimethyl-4-oxobutyl)-2-methylbenzofuran-7-carboxamide] | 7.40 | 130 nM
15 | CCOc1ccc(Cl)cc1C(=O)NCC(C)(C)CC(=O)Nc1c(C)n(C(C)C)n(-c2ccccn2)c1=O [Example 156, 5-Chloro-2-ethoxy-N-(4-{[1-isopropyl-5-methyl-3-oxo-2-(2-pyridyl)pyrazol-4-yl]amino}-2,2-dimethyl-4-oxobutyl)benzamide] | 7.32 | 100 nM

The remaining lines, values ahead:

Row | pIC50 (TIP48/TIP49 complex) | GI50 [1] | SMILES
16 | 6.72 | 590 nM | COc1ccc(Cl)cc1NC(=O)CC(C)(C)CC(=O)Nc1c(C(C)C)n(C)n(-c2ccccc2)c1=O [Example 128, N-(5-Chloro-2-methoxyphenyl)-N′-(5-isopropyl-1-methyl-3-oxo-2-phenyl-2,3-dihydro-1H-pyrazol-4-yl)-3,3-dimethylpentanediamide]
17 | 6.51 | 1700 nM | COc1ccc(Cl)cc1NC(=O)CC(C)(C)CC(=O)Nc1cn(C)n(-c2ccccc2)c1=O [Example 136, N-(5-Chloro-2-methoxyphenyl)-3,3-dimethyl-N′-(1-methyl-3-oxo-2-phenyl-2,3-dihydro-1H-pyrazol-4-yl)pentanediamide]
18 | 6.74 | 330 nM | CCCn1c(C)c(NC(=O)CC(C)(C)CC(=O)Nc2cc(Cl)c(F)cc2OC)c(=O)n1-c1ccccc1 [Example 138, N-(5-Chloro-4-fluoro-2-methoxyphenyl)-3,3-dimethyl-N′-(3-methyl-5-oxo-1-phenyl-2-propylpyrazol-4-yl)pentanediamide]
19 | 7.38 | 770 nM | COc1ccc(Cl)cc1C(=O)NCC(C)(C)CC(=O)Nc1c(C)n(C)n(-c2cccc(C)c2)c1=O [Example 145, 5-Chloro-N-(4-{[1,5-dimethyl-2-(m-toluyl)-3-oxopyrazol-4-yl]amino}-2,2-dimethyl-4-oxobutyl)-2-methoxybenzamide]
20 | 7.09 | 40 nM | Cc1c(NC(=O)CC(C)(C)CC(=O)Nc2cc(Cl)ccc2OC(C)C)c(=O)n(-c2cccc(C(F)(F)F)c2)n1C [Example 147, N-(5-Chloro-2-isopropoxy-phenyl)-N′-[1,5-dimethyl-3-oxo-2-[3-(trifluoromethyl)phenyl]pyrazol-4-yl]-3,3-dimethylpentanediamide]
21 | 7.00 | 190 nM | CCOc1ccc(Cl)cc1C(=O)NCC(C)(C)CC(=O)Nc1c(C)n(C)n(-c2ccccn2)c1=O [Example 149, 5-Chloro-N-(4-{[1,5-dimethyl-3-oxo-2-(2-pyridyl)pyrazol-4-yl]amino}-2,2-dimethyl-4-oxobutyl)-2-ethoxybenzamide]
22 | 7.24 | 81 nM | CCOc1ccc(Cl)cc1C(=O)NCC(C)(C)CC(=O)Nc1c(C)n(C)n(-c2cccc(C)n2)c1=O [Example 152, 5-Chloro-N-(4-{[1,5-dimethyl-2-(6-methyl-2-pyridyl)-3-oxopyrazol-4-yl]amino}-2,2-dimethyl-4-oxobutyl)-2-ethoxybenzamide]
23 | 7.01 | 210 nM | CCOc1ncc(Cl)cc1C(=O)NCC(C)(C)CC(=O)Nc1c(C)n(C)n(-c2cccc(C)n2)c1=O [Example 153, 5-Chloro-N-(4-{[1,5-dimethyl-2-(6-methyl-2-pyridyl)-3-oxo-2,3-dihydro-1H-pyrazol-4-yl]amino}-2,2-dimethyl-4-oxobutyl)-2-ethoxypyridine-3-carboxamide]
24 | 7.09 | 110 nM | Cc1cccc(-n2c(=O)c(NC(=O)CC(C)(C)CC(=O)Nc3cc(Cl)ccc3OC(F)(F)F)c(C)n2C)n1 [Example 154, N-[5-Chloro-2-(trifluoromethoxy)phenyl]-N′-[1,5-dimethyl-2-(6-methyl-2-pyridyl)-3-oxo-2,3-dihydro-1H-pyrazol-4-yl]-3,3-dimethylpentanediamide]
25 | 6.70 | 990 nM | COc1ccc(Cl)cc1NC(=O)CC(C)(C)CC(=O)Nc1c(C)n(C)n(C2CCCCC2)c1=O [Example 160, N-(5-Chloro-2-methoxyphenyl)-N′-(1-cyclohexyl-2,3-dimethyl-5-oxopyrazol-4-yl)-3,3-dimethylpentanediamide]
